In patent US11787792B2, “5-[[4-[[morpholin-2-yl]methylamino]-5-(trifluoromethyl)-2 Pyridyl]Amino]Pyrazine-2-carbonitrile and therapeutic uses thereof” (priority 2012, dated 2023):
pIC50: −log10 of the molar value.

How the values were obtained:
Format in all cases: cell-based
HT29 cells [1] = assay: Selectivity in cells for CHK1-dependent checkpoint abrogation versus cytotoxicity (Activity Index = SRB IC50/MIA IC50); details: for (fold better) Compound 1, cellular selectivity: fold by which Compound 1 is more selective than the row's compound; for (fold better) Compound 2, cellular selectivity: fold by which Compound 2 is more selective than the row's compound
Experimental: Assay 3: Assessment of Selectivity in Cells for CHK1-Dependent Checkpoint Abrogation Versus Cytotoxicity
Compound cytotoxicity was assessed using a 96 hour sulforhodamine B assay (SRB, Sigma catalog number S9012). HT29 or SW620 cells were seeded at 1.6 to 3.2×10^3 cells per well in 96-well plates in a volume of 160 μL medium and allowed to attach for 36 hours prior to treatment. […] Cells were incubated for 96 hours (four doublings) at 37° C. in a humidified 5% CO2 environment and then fixed and stained with SRB.
The Activity Index (AI), a measure of the selectivity of the CHK1 inhibitor test compounds for effecting CHK1-dependent checkpoint abrogation versus cytotoxicity was calculated from the ratio of the CHK1 inhibitor cytotoxicity IC50 versus the MIA IC50 (i.e., AI=CHK1 inhibitor SRB IC50/MIA IC50), both measured in HT29 cells.

HT29 cells [2] = assay: Cellular potency in Mitosis Inhibition Assay (MIA), checkpoint abrogation after etoposide; details: for pIC50: Homo sapiens, HT-29, HT29 cells, etoposide pre-treatment, nocodazole, read-out: CHK1 Cellular Potency MIA IC50; for (fold better) Compound 1, CHK1 cellular potency MIA: fold by which Compound 1 is more potent than the compound; for (fold better) Compound 2, CHK1 cellular potency MIA: fold by which Compound 2 is more potent than the compound
Experimental: Assay 2: Cellular Potency in Mitosis Inhibition Assay (MIA)
Checkpoint abrogation by CHK1 kinase function inhibitors in combination with genotoxic agents was assessed using a europium based ELISA assay designed to quantify the number of cells trapped in mitosis after treatment with a genotoxic agent (to induce G2 arrest) followed by a CHK1 inhibitor test compound in combination with nocodazole to abrogate this arrest. HT29 cells were seeded at 10^4 cells per well into 96-well plates in a volume of 160 μL and left to attach for 36 hours. […] After genotoxic drug exposure, the medium was removed and replaced with fresh medium (160 μL). […] CHK1 inhibitor test compounds were added in 40 μL aliquots using quadruplicate wells for each concentration. After 21 hours exposure, the medium was removed and cells were fixed in 4% formaldehyde in phosphate buffered saline (PBS, pH 7.4, pre-cooled to 4° C.) for 30 minutes at 4° C., followed by 100% methanol (pre-cooled to −20° C.) for 10 minutes at ambient temperature. Wells were washed with PBS and blocked with 5% dried milk (Marvel) in Tris-buffered saline (TBS, pH 7.4) at 37° C. for 30 minutes. Each well was washed three times with water containing 0.1% Tween 20. […] Primary antibody was removed and wells were washed with water containing 0.1% Tween 20.
Europium emissions were counted on a Wallac, Victor2 counter (Perkin-Elmer, Bucks UK).

HT29 cells [3] = assay: Cellular efficacy in combination with SN38 (SRB potentiation assay); details: SRB IC50/Potentiation IC50, HT29 cells, SN38 at its IC50, 96 hours
Experimental: Assay 4: Cellular Efficacy in HT29 or SW620 Colon Carcinoma Cells in Combination with SN38 or Gemcitabine
HT29 or SW620 cells were seeded at 1.6 to 3.2×10^3 cells per well in 96-well plates in a volume of 160 μL medium and allowed to attach for 36 hours prior to treatment.
The Potentiation Index (PI) was calculated as a measure of the ability of the CHK1 inhibitor to enhance SN38 or gemcitabine cytotoxicity and was defined as the ratio of the Cytotoxicity IC50 of the CHK1 inhibitor alone versus the Potentiation IC50 of the CHK1 inhibitor combined with the genotoxic (i.e., PI=CHK1 inhibitor SRB IC50/Potentiation IC50).

Structure (SMILES) | (fold better) Compound 1, cellular selectivity (HT29 cells [1]) [fold] | (fold better) Compound 2, cellular selectivity (HT29 cells [1]) [fold] | pIC50 (HT29 cells [2]) | (fold better) Compound 1, CHK1 cellular potency MIA (HT29 cells [2]) [fold] | (fold better) Compound 2, CHK1 cellular potency MIA (HT29 cells [2]) [fold] | Cell Efficacy + SN38 in HT29 cells (Potentiation Index) (HT29 cells [3]) [fold]
COCc1ccc(-c2cnc(Nc3cnc(C#N)cn3)cc2NC[C@H]2CNCCO2)cc1 [Compound Y-156] | ~4.8 | ~28 | 6.25 | ~19 | ~31 | 1.6
COCc1ccc(-c2cnc(Nc3cnc(C#N)cn3)cc2NC[C@@H]2CNCCO2)cc1 [Compound Y-148] | ~5.9 | ~34 | 6.05 | ~30 | ~50 | 
COCCOc1ccc(-c2cnc(Nc3cnc(C#N)cn3)cc2NC[C@H]2CNCCO2)cc1 [Compound Y-157] | ~4.1 | ~24 | 6.22 | ~20 | ~33 | 2
N#Cc1cnc(Nc2cc(NC[C@H]3CNCCO3)c(C(F)(F)F)cn2)cn1 [Compound 1, 5-[[4-[[(2R)-Morpholin-2-yl]methylamino]-5-(trifluoromethyl)-2-pyridyl]amino]pyrazine-2-carbonitrile] |  |  | 7.52 |  |  | 
N#Cc1cnc(Nc2cc(NC[C@@H]3CNCCO3)c(C(F)(F)F)cn2)cn1 [Compound 2, 5-[[4-[[(2S)-Morpholin-2-yl]methylamino]-5-(trifluoromethyl)-2-pyridyl]amino]pyrazine-2-carbonitrile] |  |  | 7.74 |  |  | 
COCCCc1cnc(Nc2cnc(C#N)cn2)cc1NC[C@H]1CNCCO1 [Compound Y-159] |  |  | 6.15 |  |  | 
N#Cc1cnc(Nc2cc(NCC3CNCCO3)c(C(=O)Nc3ccccc3)cn2)cn1 (stereo not shown) [Compound Y-102] | ~5.6 | ~33 | 6.10 | ~27 | ~44 | 
COCC#Cc1cnc(Nc2cnc(C#N)cn2)cc1NC[C@@H]1CNCCO1 [Compound Y-154] |  |  | 7.05 |  |  | 
COCCOc1ccc(-c2cnc(Nc3cnc(C#N)cn3)cc2NC[C@@H]2CNCCO2)cc1 [Compound Y-149] | ~7.4 | ~43 | 5.96 | ~34 | ~61 | 
COC(C)(C)C#Cc1cnc(Nc2cnc(C#N)cn2)cc1NC[C@@H]1CNCCO1 [Compound Y-155] | ~2.4 | ~13 | 6.92 | ~4 | ~7 | 0.9
